According to the supplement of paper PMC10307832:

Key:
Assay in all cases: relative viability (nuclei count vs DMSO), 5 days (fraction); higher = more cells survive
NCI-H2087 = test system: NCI-H2087
Method in brief: (§1)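 A single step with final 0.05% Triton X-100, 1% formaldehyde and 1 ug/ml Hoechst fixed the cells and stained nuclei 5 days after treatment. Lung cancer cell lines in 1536-well plates had been treated by pin tool the day after seeding with one drug alone or a fixed anchor-drug dose plus five library-drug doses (not always all listed) in √10 steps, and nuclei were counted on 4× images. Relative viability is the ratio of nuclei in treated wells to nuclei in vehicle wells, taken as the median of duplicate plates.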

LU99A = test system: LU99A
Method in brief: as §1

NCI-H838 = test system: NCI-H838
Method in brief: as §1

HCC-827 = test system: HCC-827
Method in brief: as §1

LCLC-103H = test system: LCLC-103H
Method in brief: as §1

SK-MES-1 = test system: SK-MES-1
Method in brief: as §1

NCI-H1651 = test system: NCI-H1651
Method in brief: as §1

EPLC-272H = test system: EPLC-272H
Method in brief: as §1

NCI-H1793 = test system: NCI-H1793
Method in brief: as §1

NCI-H1395 = test system: NCI-H1395
Method in brief: as §1

EMC-BAC-2 = test system: EMC-BAC-2
Method in brief: as §1

NCI-H1944 = test system: NCI-H1944
Method in brief: as §1

COR-L23 = test system: COR-L23
Method in brief: as §1

NCI-H2023 = test system: NCI-H2023
Method in brief: as §1

HCC-44 = test system: HCC-44
Method in brief: as §1

NCI-H1563 = test system: NCI-H1563
Method in brief: as §1

NCI-H2085 = test system: NCI-H2085
Method in brief: as §1

NCI-H2405 = test system: NCI-H2405
Method in brief: as §1

H3255 = test system: H3255
Method in brief: as §1

NCI-H520 = test system: NCI-H520
Method in brief: as §1

NCI-H650 = test system: NCI-H650
Method in brief: as §1

ChaGo-K-1 = test system: ChaGo-K-1
Method in brief: as §1

COc1nc(C)cnc1NS(=O)(=O)c1cccnc1-c1ccc(-c2nnco2)cc1 [Zibotentan] + N=C(N)NC(=N)NCCc1ccccc1 [Phenformin] (partner 250 µM)
relative viability (NCI-H2087; first compound 0.08 µM): 0.423
relative viability (NCI-H2087; first compound 0.253 µM): 0.428
relative viability (NCI-H2087; first compound 0.8 µM): 0.54
relative viability (NCI-H2087; first compound 2.53 µM): 0.486
relative viability (LU99A; first compound 0.08 µM): 0.922
relative viability (LU99A; first compound 0.253 µM): 0.853
relative viability (LU99A; first compound 0.8 µM): 0.795
relative viability (LU99A; first compound 2.53 µM): 0.897
relative viability (NCI-H838; first compound 0.08 µM): 0.586
relative viability (NCI-H838; first compound 0.253 µM): 0.586
relative viability (NCI-H838; first compound 0.8 µM): 0.55
relative viability (NCI-H838; first compound 2.53 µM): 0.567
relative viability (HCC-827; first compound 0.08 µM): 0.429
relative viability (HCC-827; first compound 0.253 µM): 0.399
relative viability (HCC-827; first compound 0.8 µM): 0.387
relative viability (HCC-827; first compound 2.53 µM): 0.421
relative viability (LCLC-103H; first compound 0.08 µM): 0.357
relative viability (LCLC-103H; first compound 0.253 µM): 0.314
relative viability (LCLC-103H; first compound 0.8 µM): 0.315
relative viability (LCLC-103H; first compound 2.53 µM): 0.333
relative viability (SK-MES-1; first compound 0.08 µM): 0.714
relative viability (SK-MES-1; first compound 0.253 µM): 0.612
relative viability (SK-MES-1; first compound 0.8 µM): 0.678
relative viability (SK-MES-1; first compound 2.53 µM): 0.692
relative viability (NCI-H1651; first compound 0.08 µM): 0.38
relative viability (NCI-H1651; first compound 0.253 µM): 0.264
relative viability (NCI-H1651; first compound 0.8 µM): 0.294
relative viability (NCI-H1651; first compound 2.53 µM): 0.339
relative viability (EPLC-272H; first compound 0.08 µM): 0.287
relative viability (EPLC-272H; first compound 0.253 µM): 0.296
relative viability (EPLC-272H; first compound 0.8 µM): 0.306
relative viability (EPLC-272H; first compound 2.53 µM): 0.306
relative viability (NCI-H1793; first compound 0.08 µM): 0.404
relative viability (NCI-H1793; first compound 0.253 µM): 0.431
relative viability (NCI-H1793; first compound 0.8 µM): 0.31
relative viability (NCI-H1793; first compound 2.53 µM): 0.406
relative viability (NCI-H1395; first compound 0.08 µM): 0.43
relative viability (NCI-H1395; first compound 0.253 µM): 0.45
relative viability (NCI-H1395; first compound 0.8 µM): 0.464
relative viability (NCI-H1395; first compound 2.53 µM): 0.486
relative viability (EMC-BAC-2; first compound 0.08 µM): 0.541
relative viability (EMC-BAC-2; first compound 0.8 µM): 0.61
relative viability (EMC-BAC-2; first compound 2.53 µM): 0.538
relative viability (NCI-H1944; first compound 0.08 µM): 0.226
relative viability (NCI-H1944; first compound 0.253 µM): 0.181
relative viability (NCI-H1944; first compound 0.8 µM): 0.188
relative viability (NCI-H1944; first compound 2.53 µM): 0.202
relative viability (COR-L23; first compound 0.08 µM): 0.445
relative viability (COR-L23; first compound 0.253 µM): 0.376
relative viability (COR-L23; first compound 0.8 µM): 0.506
relative viability (COR-L23; first compound 2.53 µM): 0.416
relative viability (NCI-H2023; first compound 0.08 µM): 0.407
relative viability (NCI-H2023; first compound 0.253 µM): 0.321
relative viability (NCI-H2023; first compound 0.8 µM): 0.416
relative viability (NCI-H2023; first compound 2.53 µM): 0.451
relative viability (HCC-44; first compound 0.08 µM): 0.167
relative viability (HCC-44; first compound 0.253 µM): 0.201
relative viability (HCC-44; first compound 0.8 µM): 0.273
relative viability (HCC-44; first compound 2.53 µM): 0.158
relative viability (NCI-H1563; first compound 0.08 µM): 0.67
relative viability (NCI-H1563; first compound 0.8 µM): 0.66
relative viability (NCI-H1563; first compound 2.53 µM): 0.643
relative viability (NCI-H2085; first compound 0.08 µM): 0.73
relative viability (NCI-H2085; first compound 0.253 µM): 0.699
relative viability (NCI-H2085; first compound 0.8 µM): 0.803
relative viability (NCI-H2085; first compound 2.53 µM): 0.814
relative viability (NCI-H2405; first compound 0.08 µM): 0.422
relative viability (NCI-H2405; first compound 0.253 µM): 0.39
relative viability (NCI-H2405; first compound 0.8 µM): 0.436
relative viability (NCI-H2405; first compound 2.53 µM): 0.439
relative viability (H3255; first compound 0.08 µM): 0.386
relative viability (H3255; first compound 0.253 µM): 0.326
relative viability (H3255; first compound 0.8 µM): 0.307
relative viability (H3255; first compound 2.53 µM): 0.354
relative viability (NCI-H520; first compound 0.08 µM): 0.726
relative viability (NCI-H520; first compound 0.253 µM): 0.58
relative viability (NCI-H520; first compound 0.8 µM): 0.519
relative viability (NCI-H520; first compound 2.53 µM): 0.581
relative viability (NCI-H650; first compound 0.08 µM): 0.445
relative viability (NCI-H650; first compound 0.253 µM): 0.389
relative viability (NCI-H650; first compound 0.8 µM): 0.508
relative viability (NCI-H650; first compound 2.53 µM): 0.461
relative viability (ChaGo-K-1; first compound 0.08 µM): 0.563
relative viability (ChaGo-K-1; first compound 0.253 µM): 0.42
relative viability (ChaGo-K-1; first compound 0.8 µM): 0.469
relative viability (ChaGo-K-1; first compound 2.53 µM): 0.543
